23 compounds from US20080269213A1, “8-Hydroxyquinoline compounds and methods thereof” (Wyeth, priority 2006, published 2008) can be followed below.

One assay addresses T1, Agg-1 (Homo sapiens, UniProt O75173).
T1 sequence (O75173 213-837): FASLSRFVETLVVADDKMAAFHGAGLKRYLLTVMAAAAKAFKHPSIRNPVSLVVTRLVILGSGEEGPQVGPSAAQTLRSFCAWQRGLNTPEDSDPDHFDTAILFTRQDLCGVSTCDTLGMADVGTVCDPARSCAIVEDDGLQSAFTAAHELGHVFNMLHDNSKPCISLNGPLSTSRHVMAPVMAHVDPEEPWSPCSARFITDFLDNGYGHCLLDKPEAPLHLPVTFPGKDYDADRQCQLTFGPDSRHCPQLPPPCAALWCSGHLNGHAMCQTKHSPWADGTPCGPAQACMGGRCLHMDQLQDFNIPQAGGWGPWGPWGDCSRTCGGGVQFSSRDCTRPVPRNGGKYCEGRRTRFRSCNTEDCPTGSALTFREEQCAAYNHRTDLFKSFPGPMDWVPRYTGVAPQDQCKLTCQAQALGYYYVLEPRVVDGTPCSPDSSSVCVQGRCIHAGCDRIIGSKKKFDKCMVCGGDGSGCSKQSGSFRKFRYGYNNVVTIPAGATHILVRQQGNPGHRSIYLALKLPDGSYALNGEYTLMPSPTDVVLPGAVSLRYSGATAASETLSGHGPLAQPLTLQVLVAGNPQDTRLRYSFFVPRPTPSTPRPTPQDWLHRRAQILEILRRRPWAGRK
The assay is described as follows: Agg-1 FRET assay. The format is biochemical. As to conditions: for inhibition at […]: @ 2500 nM. From the text: The Agg-1/Agg-2 FRET data for N-[(8-hydroxyquinolin-2-yl)(phenyl)methyl]-2-phenoxyacetamide and 2-{[(phenoxyacetyl)amino](phenyl)methyl}quinolin-8-yl phenoxyacetate is presented in Table 1.

In assay [1] the target is T2, recombinant human Aggrecanase-2 Agg2-Phe628 (Homo sapiens, UniProt Q9UNA0).
T2 sequence (Q9UNA0 262-628 limits assumed): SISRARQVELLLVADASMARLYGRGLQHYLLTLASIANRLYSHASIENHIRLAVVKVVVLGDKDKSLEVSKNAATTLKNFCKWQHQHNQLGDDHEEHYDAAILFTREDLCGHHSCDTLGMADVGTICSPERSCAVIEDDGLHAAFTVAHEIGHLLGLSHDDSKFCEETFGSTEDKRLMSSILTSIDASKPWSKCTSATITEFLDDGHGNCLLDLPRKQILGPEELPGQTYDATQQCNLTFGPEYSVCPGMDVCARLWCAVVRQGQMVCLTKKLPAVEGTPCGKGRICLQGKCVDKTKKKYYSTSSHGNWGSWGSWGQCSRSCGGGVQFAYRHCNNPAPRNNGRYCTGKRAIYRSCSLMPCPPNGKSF
The assay is described as follows: Aggrecanase 2 in vitro enzyme assay (Agg-2 FRET, quenched fluorescent peptide substrate). As to conditions: for Agg-2 FRET Median PCT INHIB: concentration not given; for inhibition at 200 µM: read-out: Agg-2 FRET % (printed in FRET IC50 column). On the set-up: purified recombinant human Aggrecanase-2 Agg2-Phe628 (MW=41,737); This is a truncated form of full-length human aggrecanase-2; made in house; host or cells: CHO cells. The format is biochemical. Put shortly: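 Continuous FRET assay with purified truncated human Aggrecanase-2 Agg2-Phe628 (CHO-expressed, 0.5 μg/ml final) and brevican-derived Abz/Dnp peptide (25 μM final) in 50 mM HEPES pH 7.5, 100 mM NaCl, 5 mM CaCl2, 0.1% CHAPS, 5% glycerol. Enzyme preincubated with compound before substrate; fluorescence (ex 340/em 420 nm) followed kinetically 40 min at 30 °C.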

The mark [2] stands for this setting: read-out: Agg-2 FRET Median IC50.

SMILES strings stand for the structures. Where two headings read alike, the source gives them in different places.

As to `CS(=O)(=O)Nc1cccc(C(NC(=O)COc2ccccc2)c2cc(Cl)c3cccnc3c2OS(C)(=O)=O)c1` (stereo not shown) [Example 203, 5-chloro-7-{{3-[(methylsulfonyl)amino]phenyl}[(phenoxyacetyl)amino]methyl}quinolin-8-yl methanesulfonate], the IC50 was greater than 20 µM at Agg-1 (read-out: Agg1 IC50) and greater than 30 µM in assay [1] (read-out: Agg2 IC50). In assay [1], the “Agg-2 FRET Median PCT INHIB” value is reported as 20%.
For `CC(=O)Nc1cccc(C(NC(=O)COc2ccccc2)c2cc(Cl)c3cccnc3c2O)c1` (stereo not shown) [Example 204, N-[[3-(acetylamino)phenyl](5-chloro-8-hydroxyquinolin-7-yl)methyl]-2-phenoxyacetamide], the results for the IC50 (at Agg-1 (read-out: Agg1 IC50); in assay [1] (read-out: Agg2 IC50); in assay [1] (setting [2])) were greater than 20 µM, 3.76 µM and 3.76 µM, respectively.
Regarding `O=C(CCl)Nc1cccc(C(NC(=O)COc2ccccc2)c2cc(Cl)c3cccnc3c2O)c1` (stereo not shown) [Example 205, 2-chloro-N-(3-{(5-chloro-8-hydroxyquinolin-7-yl)[(phenoxyacetyl)amino]methyl}phenyl)acetamide], the figures for the IC50 (on Agg-1 (read-out: Agg1 IC50); in assay [1] (read-out: Agg2 IC50)) were roughly 20 µM and 1.47 µM, respectively.
Consider `CN(C)CC(=O)Nc1cccc(C(NC(=O)COc2ccccc2)c2cc(Cl)c3cccnc3c2O)c1` (stereo not shown) [Example 206, N-(3-{(5-chloro-8-hydroxyquinolin-7-yl)[(phenoxyacetyl)amino]methyl}phenyl)-N2,N2-dimethylglycinamide], for which the half-maximal inhibitory concentration (IC50) at Agg-1 (read-out: Agg1 IC50) was 22 to 67 µM; in assay [1] (read-out: Agg2 IC50), 2.9 µM.
As to `CNCC(=O)Nc1cccc(C(NC(=O)COc2ccccc2)c2cc(Cl)c3cccnc3c2O)c1` (stereo not shown) [Example 207, N-(3-{(5-chloro-8-hydroxyquinolin-7-yl)[(phenoxyacetyl)amino]methyl}phenyl)-N-2-methylglycinamide], the IC50 on Agg-1 (read-out: Agg1 IC50) is 22 to 67 µM; in assay [1] (read-out: Agg2 IC50) it was 3.5 µM.
As for `O=C(O)Cc1cccc(C(NC(=O)COc2ccccc2)c2cc(Cl)c3cccnc3c2O)c1` (stereo not shown) [Example 208, (3-{(5-chloro-8-hydroxyquinolin-7-yl)[(phenoxyacetyl)amino]methyl}phenyl)acetic acid], at Agg-1 (read-out: Agg1 %), the inhibition at […] amounted to 37%. Besides, the IC50 in assay [1] (read-out: Agg2 IC50) and in assay [1] (setting [2]) was 4.48 µM each time.
On to `O=C(COc1ccc(Br)cc1)NC(c1ccccc1)c1cc(Cl)c2cccnc2c1O` (stereo not shown) [Example 209, 2-(4-bromophenoxy)-N-[(5-chloro-8-hydroxyquinolin-7-yl)(phenyl)methyl]acetamide], for which the inhibition at […] at Agg-1 (read-out: Agg1 %) worked out at 44%. In addition, the IC50 in assay [1] (read-out: Agg2 IC50) came out at 18 µM.
As to `O=C(COc1ccc(Br)cc1)NC(c1ccccc1Cl)c1cc(Cl)c2cccnc2c1O` (stereo not shown) [Example 220, 2-(4-bromophenoxy)-N-[(5-chloro-8-hydroxyquinolin-7-yl)(2-chlorophenyl)methyl]acetamide], the IC50 on Agg-1 (read-out: Agg1 IC50) was 22 to 67 µM; in assay [1] (read-out: Agg2 IC50), 2.4 µM.
For `O=C(COc1ccc2c(c1)OCO2)NC(c1ccccc1Cl)c1cc(Cl)c2cccnc2c1O` (stereo not shown) [Example 221, 2-(1,3-benzodioxol-5-yloxy)-N-[(5-chloro-8-hydroxyquinolin-7-yl)(2-chlorophenyl)methyl]acetamide] the same measures were 7.4 to 20 µM and 1 µM.
For `O=C(CNCc1cccc2ccccc12)NC(c1ccccc1)c1cc(Br)c2cccnc2c1O` (stereo not shown) [Example 222, N-[(5-bromo-8-hydroxyquinolin-7-yl)(phenyl)methyl]-N2-(1-naphthylmethyl)glycinamide], the IC50 is 7.4 to 20 µM at Agg-1 (read-out: Agg1 IC50) and 1.2 to 3.7 µM in assay [1] (read-out: Agg2 IC50).
Take `O=C(CNCc1ccccc1)NC(c1ccccc1)c1cc(Cl)c2cccnc2c1O` (stereo not shown) [Example 223, N2-benzyl-N-[(5-chloro-8-hydroxyquinolin-7-yl)(phenyl)methyl]glycinamide]: the results for the IC50 (at Agg-1 (read-out: Agg1 IC50); in assay [1] (read-out: Agg2 IC50); in assay [1] (setting [2])) were greater than 20 µM, 3.75 µM and 3.75 µM, respectively.
On to `O=C(CNCc1cccc2ccccc12)NC(c1ccccc1)c1cc(Cl)c2cccnc2c1O` (stereo not shown) [Example 224, N-[(5-chloro-8-hydroxyquinolin-7-yl)(phenyl)methyl]-N2-(1-naphthylmethyl)glycinamide], for which the IC50 at Agg-1 (read-out: Agg1 IC50) came to 17.5 µM; in assay [1] (read-out: Agg2 IC50), 1.56 µM; in assay [1] (setting [2]), 1.56 µM.
With `O=C(CNCc1ccc2c(c1)OCO2)NC(c1ccccc1)c1cc(Cl)c2cccnc2c1O` (stereo not shown) [Example 226, N^2-(1,3-benzodioxol-5-ylmethyl)-N-[(5-chloro-8-hydroxyquinolin-7-yl)(phenyl)methyl]glycinamide], the half-maximal inhibitory concentration (IC50) was greater than 11 µM at Agg-1 (read-out: Agg1 IC50), 2.75 µM in assay [1] (read-out: Agg2 IC50) and 2.75 µM in assay [1] (setting [2]).
Regarding `O=C(CNCc1ccccn1)NC(c1ccccc1)c1cc(Cl)c2cccnc2c1O` (stereo not shown) [Example 227, N-[(5-chloro-8-hydroxyquinolin-7-yl)(phenyl)methyl]-N2-(pyridin-2-ylmethyl)glycinamide], the IC50 at Agg-1 (read-out: Agg1 IC50) is greater than 50 µM; in assay [1] (read-out: Agg2 IC50), 3.87 µM.
With `O=C(CNCc1cccnc1)NC(c1ccccc1)c1cc(Cl)c2cccnc2c1O` (stereo not shown) [Example 228, N-[(5-chloro-8-hydroxyquinolin-7-yl)(phenyl)methyl]-N2-(pyridin-3-ylmethyl)glycinamide], the IC50 on Agg-1 (read-out: Agg1 IC50) was greater than 67 µM; in assay [1] (read-out: Agg2 IC50) it was greater than 11 µM. Besides, in assay [1], the “Agg-2 FRET Median PCT INHIB” value was determined as 32%.
The corresponding values for `O=C(CNCc1ccncc1)NC(c1ccccc1)c1cc(Cl)c2cccnc2c1O` (stereo not shown) [Example 229, N[(5-chloro-8-hydroxyquinolin-7-yl)(phenyl)methyl]-N2-(pyridin-4-ylmethyl)glycinamide] are greater than 67 µM, greater than 11 µM and 29%.
For `O=C(CNCc1ccc(-c2ccccc2)cc1)NC(c1ccccc1)c1cc(Cl)c2cccnc2c1O` (stereo not shown) [Example 230, N^2-(biphenyl-4-ylmethyl)-N-[(5-chloro-8-hydroxyquinolin-7-yl)(phenyl)methyl]glycinamide], the IC50 on Agg-1 (read-out: Agg1 IC50) is greater than 20 µM; in assay [1] (read-out: Agg2 IC50) it was 1.29 µM.
The corresponding values for `O=C(CNCc1cccc2ccccc12)NC(c1ccccc1Cl)c1cc(Cl)c2cccnc2c1O` (stereo not shown) [Example 231, N-[(5-chloro-8-hydroxyquinolin-7-yl)(2-chlorophenyl)methyl]-N2-(1-naphthylmethyl)glycinamide] are roughly 20 µM and 1.37 µM.
With `O=C(CNCc1ccc2c(c1)OCO2)NC(c1ccccc1Cl)c1cc(Cl)c2cccnc2c1O` (stereo not shown) [Example 232, N2-(1,3-benzodioxol-5-ylmethyl)-N-[(5-chloro-8-hydroxyquinolin-7-yl)(2-chlorophenyl)methyl]glycinamide], the IC50 on Agg-1 (read-out: Agg1 IC50) amounted to 13.7 µM; in assay [1] (read-out: Agg2 IC50), 1.8 µM.
For the compound `O=C(COc1ccccc1)NC(c1ccccc1)c1ccc2cccc(O)c2n1` (stereo not shown) [Example 276, N-[(8-hydroxyquinolin-2-yl)(phenyl)methyl]-2-phenoxyacetamide], at Agg-1 (read-out: FRET IC50 Agg-1), the IC50 worked out at 15 µM. In addition, the inhibition at 200 µM in assay [1] came out at 32%.
`O=C(COc1ccccc1)NC(c1ccccc1)c1ccc2cccc(OC(=O)COc3ccccc3)c2n1` (stereo not shown) [Example 277, 2-{[(phenoxyacetyl)amino](phenyl)methyl}quinolin-8-yl phenoxyacetate]: on Agg-1 (read-out: FRET IC50 Agg-1), the IC50 came to 4 µM. Besides, the inhibition at 200 µM in assay [1] worked out at 52%.
In the case of `O=C(COc1ccccc1)NC(c1cccc2c1OCO2)c1cc(Cl)c2cccnc2c1O` (stereo not shown) [N-[1,3-benzodioxol-4-yl(5-chloro-8-hydroxyquinolin-7-yl)methyl]-2-phenoxyacetamide], the inhibition at 7.4 µM on Agg-1 (@ 7400 nM, read-out: Agg1 %) is 54%. For the same compound, the IC50 in assay [1] (read-out: Agg2 IC50) was 1.4 µM.
With `O=C(COc1ccccc1)NC(c1ccc2c(c1)OCO2)c1cc(Cl)c2cccnc2c1O` (stereo not shown) [N-[1,3-benzodioxol-5-yl(5-chloro-8-hydroxyquinolin-7-yl)methyl]-2-phenoxyacetamide], the IC50 on Agg-1 (read-out: Agg1 IC50) was greater than 22 µM; in assay [1] (read-out: Agg2 IC50) it was 1.56 µM; in assay [1] (setting [2]) it was 1.56 µM.
